Consider two substances from patent US12285404B2, “Prevention of rosacea inflammation” (The Regents of the University of California, priority 2013, dated 2025).

The subject of assay [1] is WT and KitWsh-/- mice. Nature of the assay: Neuropeptide experiment: intradermal neuropeptide in WT and KitWsh-/- mice, skin mRNA by RT-PCR. The format is in vivo, mouse. The note with it: 100 μL of 1 μM intradermally, 6 hrs. The protocol: WT and KitWsh^−/− mice were injected with PBS or 100 μL of 1 μM neuropeptide (SP, substance P; ADM-2, adrenomedullin-2; PACAP, pituitary adenylate cyclase-activating peptide) intradermally, as indicated. Skin biopsies were harvested 6 hrs after injection and mRNA expressions of (a) proteases (chymase, tryptase, Mmp-9 and Mmp-1) and (b) proinflammatory cytokines (Cxcl2 and Tnf-α) were assessed by RT-PCR. Statistics: two-way ANOVA*p<0.05, **p<0.01, ***p<0.001 (n=3).
For the neuropeptide experiment, 100 μL of 1 μM neuropeptide or PBS was injected into mice intradermally. Skin biopsies were taken 6 hrs after injection.
(§1) cDNA was synthesized from RNA using the iScript cDNA Synthesis Kit (BioRad, Hercules, CA) according to the manufacturer's protocol. cDNA was normalized using a NanoDrop spectrophotometer (Thermo Fisher Scientific Inc.). Probes from TagMan Gene Expression Assays (Applied Biosystems ABI, Foster City, CA) were used to analyze gene expressions with following to the manufacturer's instructions. Gapdh mRNA was used as an internal control to validate RNA for each sample. mRNA expression was calculated as the relative expression to Gapdh mRNA, and all data are presented as fold change of each control.
Rosacea flare-ups are frequently initiated by face flushing due to neuronal dysfunction and increased release of pituitary adenylate cyclase-activating peptide (PACAP) (Schwab et al., 2011). To investigate whether neuropeptides (NPs) require MC activation for the development of the inflammatory response in rosacea, 100 μL of 1 μM NP (substance P: SP, adrenomedullin-2: ADM-2, PACAP) was injected intradermally into WT and MC deficient mice. […] Moreover, these same MC enzymes can further increase the levels of free Cath LL-37 and amplify the inflammatory response.

Assay [2] deals with WT (C57BL/6) and MC-deficient (KitWsh-/-) mice. Nature of the assay: Rosacea mouse model: intradermal Cath LL-37 in WT and MC-deficient (KitWsh-/-) mice. Format: in vivo. How it is done: (a) Human biopsy samples from healthy and rosacea subjects were assessed for chymase and Mmp-9 mRNA expressions (n=6). (b) Photographs of the rosacea mouse model. 24 hrs after removal of the hair, the back skins of wild type (C57BL/6) and MC-deficient (KitWsh^−/−) mice were injected intradermally with 50 μl of 320 μM Cath LL-37 or filtered PBS twice a day for 2 days. Clinical observation was carried out for 72 hours. (c) Skins from WT, WT MC reconstituted KitWsh^−/− and KitWsh^−/− mice were challenged as indicated and harvested after 72 hours of observation. Mmp-9 mRNA expression in each sample was assessed by RT-PCR. (d) Assessment of MMP protease activities in WT mouse skin following challenge with PBS or the indicated amounts of Cath LL-37. (e) Skin biopsies from WT or KitWsh^−/− mice were analyzed by RT-PCR for the expression of MC proteases at 0, 1, 4, and 24 hrs after Cath LL-37 challenge. Statistics: Mann Whitney test, one-way and two-way ANOVA*p<0.05, **p<0.01, ***p<0.001 (1b-1e: n=3).
(§2) (a) Bone marrow derived mouse MCs were challenged in vitro with 10 ug/mL Cath LL-37 or PBS as indicated. The cells were harvested at different time points and the mRNA was extracted and assessed by RT-PCR for tryptase, chymase and Mmp-9 expression. (b) Cell culture supernatant from bone marrow derived MCs was taken after 24 hrs of Cath LL-37 challenge. MMP and MMP-9 specific activities were measured by assessing cleavage of MMP substrate in the presence or absence of a specific MMP-9 inhibitor, as indicated. (c) Bone marrow derived MCs were treated, as indicated, for 24 hrs before collecting supernatants and assessing degranulation percentage by measuring β-hexosaminidase release. (d) Cultured mouse MCs were challenged with the indicated concentrations of Cath LL-37 for 24 or 48 hrs before supernatants were collected and the amounts of IL-6 secretion were measured. (e) Il-6 mRNA expression was measured by RT-PCR in mouse skin biopsies after 0, 1, 4, and 24 hrs of Cath LL-37 challenge in WT and MC deficient mice, as indicated. Statistics: t-test ***p<0.001 (n=3).
Mast cell deficient (C57BL/6-KitWsh^−/−) mice were bred. KitWsh^−/− mice bearing the W-sash (Wsh) inversion mutation have MC deficiency, but lack anemia and sterility. […] Wild type mice (C57BL/6) were utilized as control. Mice were shaved 24 hrs before intradermal injection with 50 μl of 50 μM or 320 μM of Cath LL-37 or filtered PBS (n=3), twice a day for 2 days and skin biopsies were taken after 72 hours of observation. Total RNA was extracted and purified by RNeasy Mini Kit (QIAGEN science). For the time course observation, skin biopsies of WT and MC deficient mice were taken at 1, 4, and 24 hrs after Cath LL-37 injection.
BMMC reconstitution in KitWsh−/− mice. 4×10^6 cells of C57BL/6 mature BMMCs were diluted in filtered PBS and injected into the shaved back skin of 6 week old C57BL/6− KitWsh^−/− mice (400 μl; 8×50 μl injections) intradermally. After 6 weeks, MCs were confirmed as resident cells in skin by toluidine blue staining.
(§3) Total-MMP activities were determined by following previously reported study (Kanada et al., 2012). To determine MMP-9 activity, MMP-9 specific inhibitor I (Thermo Fisher Scientific, Chicago, IL) was used.
as §1
Cath LL-37 was injected intradermally into mast cell deficient mice (KitWsh^−/−) and compared the resulting inflammation with Wild Type (WT) mice. […]

For assay [3], the system named is bone marrow derived mouse MCs. The assay is described as follows: In vitro Cath LL-37 challenge of bone marrow derived mouse MCs. Format: cell-based. The protocol:
as §2
Primary MCs were generated from mouse bone marrow and cultured as previously written (Wang et al., 2011). MCs were cultured in Stemline® II Hematopoietic Stem Cell Expansion Medium (Sigma-Aldrich).
as §3, §1
Degranulation percentage was assessed by measuring the activity of β-hexosaminidase in the supernatants as previously described (Wang et al., 2012).
ELISA (ELISA MAX™ Deluxe; BioLegend, San Diego, CA) was utilized to determine mouse IL-6 according to the manufacturer's instructions, normalized to total protein content.
To confirm that mast cells are responsive to direct Cath LL-37 stimulation, bone marrow derived mouse MCs were stimulated with different concentrations of Cath LL-37 at different time points. […] MMP-9 protease activity in the culture medium of MCs stimulated with Cath-LL37 for 24 hrs was confirmed by fluorescence enzymatic activity assay using an MMP specific substrate and an MMP-9 specific inhibitor (FIG. 2b).

[4] abbreviates: MC-deficient mice after Cath LL-37.
[5] abbreviates: WT mice, 0, 1, 4, 24 hrs after Cath LL-37.
Where [6] appears, read: Cath LL-37 stimulated MCs, at 5 hrs.
[7] abbreviates: Cath LL-37 stimulated MCs, at 5 hrs, p<0.001.

With “pituitary adenylate cyclase-activating peptide [PACAP]”, in assay [1] (MC deficient mice), the “Tnf-a mRNA expression in skin” value is recorded as “not in MC deficient mice”. Besides, in assay [1] (WT mice, p<0.01), the “Cxcl2 mRNA expression in skin” value is reported as “significantly increased”, the “Tnf-a mRNA expression in skin” value is given as “significantly increased” and the “Tryptase mRNA expression in skin” value was “dramatically increased”. In assay [1] (WT mice, p<0.05), the “Chymase mRNA expression in skin” value is listed as “significantly increased”, the “Mmp-1 mRNA expression in skin” value is on record as “significantly increased” and the “Mmp-9 mRNA expression in skin” value was “significantly increased”.
Turning to “Cath LL-37: LL-37 Cathelicidin antimicrobial peptide, C-terminal 37 amino acids of human cathelicidin”, in assay [2] (KitWsh-/- mice, intradermal Cath LL-37, at 72 hrs), the “clinical end point observation of skin” value is recorded as “did not develop any rosacea-like features”. Also, in assay [2] (setting [4]), the “chymase expression in skin (time course)” value is listed as “not detectable” and the “tryptase expression in skin (time course)” value is recorded as “not detectable”. For the same substance, in assay [2] (WT mice following Cath LL-37 challenge), the “IL-6 mRNA expression in skin” value is recorded as “Increased”. In assay [2] (setting [5]), the “chymase expression in skin (time course)” value is given as “expressed immediately after injection” and the “tryptase expression in skin (time course)” value was “expressed immediately after injection”. Besides, the “MMP activity in skin” value in assay [2] (WT mice, 50 μM and 320 μM Cath LL-37 injected) is recorded as “increases in a dose dependent manner”. The “clinical end point observation of skin” value in assay [2] (WT mice, intradermal Cath LL-37 twice a day for 2 days, at 72 hrs) is “rosacea-like inflammation”. The “Mmp-9 mRNA expression in skin from MC deficient mice compared with WT and WT MC-reconstituted KitWsh-/- mice” value in assay [2] (after peptide challenge, 72 hours, p<0.01 vs WT, p<0.05 vs reconstituted) is on record as “significantly lower”. The “IL-6 mRNA expression in skin” value in assay [2] (mast cell deficient mice following Cath LL-37 challenge) is recorded as “not in mast cell deficient mice”. Besides, in assay [3] (24 and 48 hrs of stimulation, Cath LL-37 20 nM and 40 nM), the “secreted IL-6 (ELISA)” value is “high levels”. In addition, in assay [3] (setting [6]), the “Klk5 mRNA expression” value is on record as “not detectable”, the “Klk6 mRNA expression” value is “not detectable” and the “Mmp-1a mRNA expression” value is recorded as “not detectable”. In assay [3] (setting [7]), the “Mmp-9 mRNA expression” value is listed as “significantly higher”, the “Tryptase mRNA expression” value is on record as “significantly higher” and the “chymase mRNA expression” value is “significantly higher”. The “MMP-9 protease activity in the culture medium” value in assay [3] (MCs stimulated with Cath-LL37 for 24 hrs, MMP specific substrate and MMP-9 specific inhibitor) is listed as “confirmed”. In assay [3] (low concentration of Cath LL-37 (20 nM), supernatants after 24 hrs), the “MC degranulation (β-hexosaminidase release)” value is “able to induce degranulation”.
